In US9464064B2, “HCV helicase inhibitors and methods of use thereof” (University of Kansas, priority 2011, dated 2016):

Biological target: T1, HCV NS3 helicase NS3h_1b(con1) (Hepatitis C virus genotype 1b, UniProt Q9WMX2)
T1 construct: truncated C-terminally His-tagged NS3 proteins lacking the N-terminal protease, called NS3h; His-tag (C); made in house
Experiment: MBHA screen of NCI mechanistic set library at 20 μM (percent inhibition, compound interference)
Assay type: biochemical
Settings: compounds at 20 μM; for Inh. (%) (Inhibition): calculated from Equation 1
In short: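 Molecular beacon-based DNA unwinding assay; compounds screened at 20 μM in triplicate, with DMSO-only negative and 500 nM dT20 positive controls. Fluorescence (ex 643/em 670 nm) was read before and 30 min after adding ATP to 1 mM. Percent inhibition came from the change relative to DMSO controls; interference from pre-ATP fluorescence versus DMSO controls.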

[1] = MBHA with DNA substrate, assay interference calculated with Equation 2
[2] = assay interference calculated with Equation 2 (fluorescence vs DMSO-only controls before ATP)

T1 sequence (Q9WMX2 1192-1657): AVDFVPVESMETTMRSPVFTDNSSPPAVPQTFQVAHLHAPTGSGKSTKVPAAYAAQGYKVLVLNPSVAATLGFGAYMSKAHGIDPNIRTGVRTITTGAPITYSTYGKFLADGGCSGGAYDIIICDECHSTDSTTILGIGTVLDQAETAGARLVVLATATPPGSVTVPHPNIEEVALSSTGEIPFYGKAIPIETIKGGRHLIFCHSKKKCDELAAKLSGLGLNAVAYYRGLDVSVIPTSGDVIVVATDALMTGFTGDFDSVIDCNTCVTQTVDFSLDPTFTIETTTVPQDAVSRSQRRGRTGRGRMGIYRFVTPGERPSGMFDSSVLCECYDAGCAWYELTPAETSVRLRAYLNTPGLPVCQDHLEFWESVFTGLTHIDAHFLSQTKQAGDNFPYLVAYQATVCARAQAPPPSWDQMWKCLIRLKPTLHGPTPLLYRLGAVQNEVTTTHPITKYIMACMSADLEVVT

SMILES	Int.* (Ratio) (Interference) [1]	Inh. (%) (Inhibition) (MBHA with DNA substrate)	Inh. (%) (Inhibition) (MBHA with a DNA substrate)	Int.* (Ratio) (Interference) [2]
Cc1c(Cl)cccc1NC(=O)/C=C/c1ccccc1 [Compound 191392]	1.10	2.5		
Cc1cccc(Cl)c1NC(=O)/C=C/c1ccccc1 [Compound 191393]			−6.3	1.05
CC[C@@]1(O)C[C@H](O)c2c(O)c3c(c(O)c2[C@H]1C(=O)OC)C(=O)c1cccc(O)c1C3=O [Compound 196524]	1.02	3.3		
O=C1OC(c2ccco2)=N/C1=C\c1ccc(Cl)c(Cl)c1 [Compound 202000]			−5.7	0.99
COc1cc2c(c3oc4cccc(O)c4c(=O)c13)[C@@H]1C=CO[C@@H]1O2 [Compound 204985]	1.05	5.4		
CC[C@@]1(O)C[C@H](O[C@H]2C[C@H](N(C)C)[C@H](O[C@H]3C[C@H](O)[C@H](O[C@H]4CCC(=O)[C@H](C)O4)[C@H](C)O3)[C@H](C)O2)c2c(cc3c(c2O)C(=O)c2c(O)cccc2C3=O)[C@@H]1C(=O)OC [Compound 208734]	0.56	56.5		
CCOC(=O)C(C)NC(=O)N(C)C12CC3CC(CC(C3)C1)C2 (stereo not shown) [Compound 208913]	1.10	0.9		
CCOC(=O)CNC(=O)NC12CC3CC(CC(C3)C1)C2 [Compound 208914]			−4.1	1.09
COc1ccc(C2C=C(c3ccc4c(c3)OCO4)Oc3c2c(=O)oc2ccccc32)cc1OC (stereo not shown) [Compound 211489]			−30.1	0.82
CC(C)c1oc(=O)cc2c1[C@@H](O)[C@H]1OC(=O)[C@@]3(C)[C@@H](O)[C@H]4O[C@H]4[C@@]2(C)[C@@H]13 [Compound 211500]			10.6	0.89
O=c1oc2ccccc2cc1-c1ccc([N+](=O)[O-])cc1 [Compound 215989]	0.82	21.9		
C[n+]1ccc(Nc2ccc(NC(=O)c3ccc(Nc4cc[n+](C)c5ccc([N+](=O)[O-])cc45)cc3[N+](=O)[O-])cc2)cc1.Cl [Compound 218439]	0.46	−8.9		
c1ccc2c(NCCCCCCCCNc3c4ccccc4nc4ccccc34)c3ccccc3nc2c1 [Compound 219734]	0.26	41.8		
Cc1[nH]c(=O)[nH]c(=O)c1/C=C/C(=O)NC(CO)CC(C)C (stereo not shown) [Compound 224117]	1.01	−2.8		
NC(=O)OCc1c(O)c2c(c(O)c1COC(N)=O)C(=O)C=CC2=O [Compound 224124]	0.93	37.7		
O=C(O)CC(NC(=O)CP(=O)(O)O)C(=O)O (stereo not shown) [Compound 224131]	0.86	12.3		
CO[C@H]1C[C@@H]2CC[C@@H](C)[C@@](O)(O2)C(=O)C(=O)N2CCCC[C@H]2C(=O)O[C@H]([C@H](C)C[C@@H]2CC[C@@H](O)[C@H](OC)C2)CC(=O)[C@H](C)/C=C(\C)[C@@H](O)[C@@H](OC)C(=O)[C@H](C)C[C@H](C)/C=C/C=C/C=C/1C [Compound 226080]	0.90	−1.0		
CSCC(CO)NC(=O)/C=C/c1c(C)[nH]c(=O)[nH]c1=O (stereo not shown) [Compound 233872]	1.00	17.4		
O=C([O-])c1ccc(Nc2c3ccccc3nc3ccccc23)cc1.[Na+] [Compound 235082]			−6.4	1.02
COC1C(O)=C2C(=O)OC(C)(O)/C=C/C=C\C=C/C=C/C(c3ccccc3)NC(=O)/C=C/C=C/C=C/C=C/C2(C)C1O (stereo not shown) [Compound 236657]			−19.9	0.91
COC1/C=C/OC2(C)Oc3c(C)c(O)c4c(c3C2=O)C(=O)C=C(NC(=O)/C(C)=C\C=C\C(C)C(OC=O)C(C)C(O)C(C)C(OC(C)=O)C1C)C4=O (stereo not shown) [Compound 239375]	0.90	−18.3		

SMILES	Int.* (Ratio) (Interference) [1]	Inh. (%) (Inhibition) (MBHA with DNA substrate)	Inh. (%) (Inhibition) (MBHA with a DNA substrate)	Int.* (Ratio) (Interference) [2]
Cc1cc(N(CC(C)Br)CC(C)Br)ccc1N=Nc1ccccc1C(=O)O (stereo not shown) [Compound 240419]	0.94	−2.7		
CCCC[S+]([O-])CC(CO)NC(=O)/C=C\c1c(C)[nH]c(=O)[nH]c1=O (stereo not shown) [Compound 241509]	1.01	−2.4		
COc1cc(O)c(Cc2ccccc2O)c(O)c1C(=O)CCc1ccccc1 [Compound 241906]			−6.2	0.88
CC[C@@]1(O)C[C@H](O[C@H]2C[C@H](N(C)C)[C@H](O[C@H]3C[C@@H]4O[C@H]5CC(=O)[C@H](C)O[C@H]5O[C@@H]4[C@H](C)O3)[C@H](C)O2)c2c(cc3c(c2O)C(=O)c2c(O)ccc(O)c2C3=O)[C@H]1C(=O)OC [Compound 243023]	0.46	24.2		
CCS(=O)(=O)Nc1ccc(Nc2c3ccccc3nc3ccccc23)c(OC)c1.CS(=O)(=O)O [Compound 243928]	0.87	3.4		
CC(=O)OC[C@H]1O[C@@H](NC(=O)N(CCCl)N=O)[C@H](OC(C)=O)[C@@H](OC(C)=O)[C@@H]1OC(C)=O [Compound 245432]	1.06	37.4		
COc1cc(NS(C)(=O)=O)ccc1Nc1c2ccccc2nc2ccccc12 [Compound 249992]	1.08	3.0		
CNC(=O)ON(C(C)=O)C(=O)NC [Compound 253272]	0.97	5.5		
O=C([CH-]C(=O)C(F)(F)F)c1ccccc1.O=C([CH-]C(=O)C(F)(F)F)c1ccccc1.O=C([CH-]C(=O)C(F)(F)F)c1ccccc1.O=C([CH-]C(=O)C(F)(F)F)c1ccccc1.[Eu+3].c1ccncc1 [Compound 253995]	0.78	2.4		
CO[C@H]1/C=C\C=C(/C)C(=O)NC2=CC(=O)C(N)=C(C[C@@H](C)C[C@H](OC)[C@H](O)[C@@H](C)/C=C(\C)[C@@H]1OC(N)=O)C2=O [Compound 255109]	0.77	31.7		
CC(C)N.CC(C)N.[Cl-].[Cl-].[OH-].[OH-].[Pt] [Compound 256927]	1.02	−0.4		
Clc1ccccc1C(c1ccccc1)(c1ccccc1)n1ccnc1 [Compound 257473]	1.08	−8.4		
COc1cccc2c1C(=O)c1c(O)c3c(c(O)c1C2=O)C[C@@](O)(C(C)=O)C[C@@H]3OC1CC(N(C)C)C(O)C(C)O1.Cl (stereo partly shown) [Compound 258812]	0.64	46.4		
COc1ccc2c(NCCCCCCNc3c4ccccc4nc4cc(OC)ccc34)c3ccccc3nc2c1 [Compound 260610]			10.7	0.27
Nc1cc2[nH]cnc2c(=O)[nH]1 [Compound 261726]			9.6	0.96
COc1ccc(/C=C2\N=C(c3ccccc3)OC2=O)c(OCc2ccccc2)c1 [Compound 262665]			−3.4	0.95
C[n+]1ccc(-c2cc[n+](C)cc2)cc1.[Cl-].[Cl-] [Compound 263500]	1.18	−8.7		
NC1=NCN([C@@H]2O[C@H](CO)[C@@H](O)[C@H]2O)C(=O)N1 [Compound 264880]			−43.3	1.28
CC[C@@]1(O)C[C@H](O[C@H]2C[C@H](N(C)C)[C@H](O[C@H]3C[C@H](O)[C@H](O[C@H]4C[C@H](O)[C@H](O)[C@H](C)O4)[C@H](C)O3)[C@H](C)O2)c2c(cc3c(c2O)C(=O)c2c(O)ccc(O)c2C3=O)[C@H]1C(=O)OC [Compound 265211]			8.9	0.82
COC1C(C)OC(OC2CC(C)(O)Cc3cc4c(c(O)c32)C(=O)c2c(O)cc3c(c2C4=O)OC2OC3(C)C(O)C(N(C)C)C2O)C(OC)C1(C)OC (stereo not shown) [Compound 265450]	0.54	38.9		
